Data set [1] has as its system Puccinia recondita f. Sp. Triticil. The data set can be described thus: Puccinia recondita f. sp. tritici / wheat / leaf disc curative (brown rust). It is filed as in vivo, Puccinia recondita f. sp. tritici on wheat cv. Kanzler. As to conditions: foliar, 200 ppm in the applied formulation, applied 1 day after inoculation, assessed 6 to 8 days after application, vs untreated control leaf disks, read-out: disease control. An outline of the steps: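 Read-out is percent disease control relative to untreated segments, assessed 6 to 8 days after treatment once check disease is adequate. Kanzler wheat leaf segments on agar receive fungal spores, then test compound (DMSO stock diluted in 0.025% Tween20 or water) 1 day later, under 19° C and 75% relative humidity.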

The next data set concerns Phakopsora pachyrhizi. The data set can be described thus: Phakopsora pachyrhizi / soybean / leaf disc preventative (Asian soybean rust). It is filed as in vivo, Phakopsora pachyrhizi on soybean. As to conditions: foliar, 200 ppm in the applied formulation, inoculated one day after application, assessed 12 to 14 days after application, vs untreated control leaf disks, read-out: disease control. An outline of the steps: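 Read-out is percent disease control relative to untreated check discs, assessed once untreated discs show adequate disease, 12 to 14 days after application. Compounds, tested at 200 ppm in the applied formulation, are sprayed onto soybean leaf discs one day before inoculation with a spore suspension.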

Data set [2] has as its system Glomerella Lacenarium (Colletotrichum lacenarium). The experiment in a line: Glomerella lagenarium (Colletotrichum lagenarium) liquid culture / cucumber / preventative (anthracnose). It is filed as cell-based. As to conditions: 20 ppm in the applied formulation, liquid culture in PDB, 24° C., inhibition of growth measured photometrically 3 to 4 days after application, vs untreated control, read-out: disease control. A digest of the protocol: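 Photometric measurement of fungal growth inhibition 3 to 4 days after application gives percent activity relative to untreated check. Conidia were suspended in potato dextrose broth and combined with DMSO compound solutions; incubation at 24° C.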

Data set [3] concerns Puccinia recondita f. Sp. Tritici. The experiment in a line: Puccinia recondita f. sp. tritici / wheat / leaf disc preventative (brown rust). It is filed as in vivo, Puccinia recondita f. sp. tritici on wheat cv. Kanzler. As to conditions: foliar, 200 ppm in the applied formulation, inoculated 1 day after application, assessed 7 to 9 days after application, vs untreated control leaf disks, read-out: disease control. A digest of the protocol: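 Wheat cv. Kanzler leaf segments on agar were sprayed with compound (DMSO stock diluted with 0.025% Tween20) 1 day before inoculation with spores. Segments were held at 19 °C, 75% rh, 12 h light/dark. Percent disease control versus untreated was scored 7–9 days after application.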

Another data set relates to Uromyces viciae-Fabael. The experiment in a line: Uromyces viciae-fabae / field bean / leaf disc preventative (faba-bean rust). The data set is classed as in vivo, Uromyces viciae-fabae on field bean. As to conditions: foliar, 288 h, 100 ppm in the applied formulation, inoculated two hours after application, assessed 12 days after application, vs untreated control leaf discs, read-out: disease control. The protocol:
Leaf disks or leaf segments of various plant species are cut from plants grown in a greenhouse. The cut leaf disks or segments are placed in multiwell plates (24-well format) onto water agar. The leaf disks are sprayed with a test solution before (preventative) or after (curative) inoculation. Compounds to be tested are prepared as DMSO solutions (max. 10 mg/ml) which are diluted to the appropriate concentration with 0.025% Tween20 just before spraying. The inoculated leaf disks or segments are incubated under defined conditions (temperature, relative humidity, light, etc.) according to the respective test system. A single evaluation of disease level is carried out 3 to 14 days after inoculation, depending on the pathosystem. Percent disease control relative to the untreated check leaf disks or segments is then calculated.
Field bean leaf discs are placed on water agar in multiwell plates (96-well format) and 10 μl of the formulated test compound diluted in acetone and a spreader pipetted onto the leaf disc. Two hours after application leaf discs are inoculated by spraying a spore suspension on the lower leaf surface. The leaf discs are incubated in a climate cabinet at 22° C. with 18 hour day and 70% relative humidity. The activity of a compound is assessed as percent disease control compared to untreated when an appropriate level of disease damage appears in untreated check leaf disks (12 days after application).
The following compounds at 100 ppm in the applied formulation give at least 80% disease control in this test when compared to untreated control leaf discs under the same conditions, which show extensive disease development.

SMILES strings stand for the structures. A value given as a limit tells only on which side of the number the result lay.

Take `O=C(NCc1ccc(-c2noc(C(F)(F)F)n2)nc1)C1CCCO1` (centres unmarked) [Compound 1.94, N-[[6-[5-(trifluoromethyl)-1,2,4-oxadiazol-3-yl]-3-pyridyl]methyl] tetrahydrofuran-2-carboxamide]: the melting point (in general, the temperature of the solid-liquid transition) fell in the range of 84 to 88 °C. In addition, in data set [1], the pest or weed control at 200 ppm was not below 80%.
In the case of `O=C(NCc1ccc(-c2noc(C(F)(F)F)n2)c(F)c1F)c1ccccc1Cl` [Compound 1.56, 2-chloro-N-[[2,3-difluoro-4-[5-(trifluoromethyl)-1,2,4-oxadiazol-3-yl]phenyl]methyl] benzamide], the melting point fell in the range of 144 to 150 °C. For the same molecule, the pest or weed control at 200 ppm in the data set on Phakopsora pachyrhizi is not below 80%. Further, in data set [2], the inhibition of growth at 20 ppm was not below 80%. Further, the pest or weed control at 200 ppm in data set [3] is not below 80%.
Molecule `O=C(NCc1ccc(-c2noc(C(F)(F)F)n2)nc1)c1ccccc1Cl` [Compound 1.95, 2-chloro-N-[[6-[5-(trifluoromethyl)-1,2,4-oxadiazol-3-yl]-3-pyridyl]methyl] benzamide] showed a melting point of 106 to 113 °C. The pest or weed control at 200 ppm in data set [3] was not below 80%.
As for `O=C(NCc1ccc(-c2noc(C(F)(F)F)n2)cc1)C1CCOC1` (centres unmarked) [Compound 1.18, N-[[4-[5-(trifluoromethyl)-1,2,4-oxadiazol-3-yl]phenyl]methyl] tetrahydrofuran-3-carboxamide], the pest or weed control at 100 ppm in the data set with Uromyces viciae-Fabael was not below 80%. The pest or weed control at 200 ppm (in the data set with Phakopsora pachyrhizi; in data set [1]; in data set [3]) was not below 80% each time. Also, the inhibition of growth at 20 ppm in data set [2] was not below 80%.
With `Cc1cccc(C)c1C(=O)NCc1ccc(-c2noc(C(F)(F)F)n2)cc1` [Compound 1.19, 2,6-dimethyl-N-[[4-[5-(trifluoromethyl)-1,2,4-oxadiazol-3-yl]phenyl]methyl]benzamide], the pest or weed control at 100 ppm in the data set with Uromyces viciae-Fabael was not below 80%. Also, the pest or weed control at 200 ppm (with Phakopsora pachyrhizi; in data set [3]) was not below 80% throughout. Besides, in data set [2], the inhibition of growth at 20 ppm is not below 80%.
For the molecule `COc1ccccc1C(=O)NCc1ccc(-c2noc(C(F)(F)F)n2)cc1` [Compound 1.6, 2-methoxy-N-[[4-[5-(trifluoromethyl)-1,2,4-oxadiazol-3-yl]phenyl]methyl]benzamide], the pest or weed control at 100 ppm in the data set with Uromyces viciae-Fabael is not below 80%. For the same molecule, the pest or weed control at 200 ppm (with Phakopsora pachyrhizi; in data set [1]; in data set [3]) was not below 80% each time. Besides, the inhibition of growth at 20 ppm in data set [2] is not below 80%.
Consider `O=C(NCCc1ccc(-c2noc(C(F)(F)F)n2)cc1)c1ccccc1Cl` [Compound 1.99, 2-chloro-N-[2-[4-[5-(trifluoromethyl)-1,2,4-oxadiazol-3-yl]phenyl]ethyl]benzamide], for which the melting point is 133 to 140 °C. In addition, the pest or weed control at 200 ppm in the data set with Phakopsora pachyrhizi is not below 80%. The pest or weed control at 200 ppm in data set [3] is not below 80%.
In the case of `O=C(Cc1ccccc1)NCc1ccc(-c2noc(C(F)(F)F)n2)cc1` [Compound 1.26, 2-phenyl-N-[[4-[5-(trifluoromethyl)-1,2,4-oxadiazol-3-yl]phenyl]methyl]acetamide], in the data set with Uromyces viciae-Fabael, the pest or weed control at 100 ppm was not below 80%. Besides, the pest or weed control at 200 ppm (in the data set with Phakopsora pachyrhizi; in data set [1]; in data set [3]) was not below 80% throughout. Moreover, the inhibition of growth at 20 ppm in data set [2] was not below 80%.
Regarding `O=C(CC1CC1(F)F)NCc1ccc(-c2noc(C(F)(F)F)n2)cc1` (centres unmarked) [Compound 1.32, 2-(2,2-difluorocyclopropyl)-N-[[4-[5-(trifluoromethyl)-1,2,4-oxadiazol-3-yl]phenyl]methyl]acetamide], the pest or weed control at 100 ppm with Uromyces viciae-Fabael was not below 80%. Besides, the pest or weed control at 200 ppm (in the data set with Phakopsora pachyrhizi; in data set [1]; in data set [3]) was not below 80% in each case. Further, the inhibition of growth at 20 ppm in data set [2] was not below 80%.

Source of the values: US20180368410A1, “MICROBIOCIDAL OXADIAZOLE DERIVATIVES” (SYNGENTA PARTICIPATIONS AG, priority 2015, published 2018).
